In article PMC9893751, “Synthesis of Benzimidazole-1,2,4-triazole Derivatives as Potential Antifungal Agents Targeting 14α-Demethylase” (ACS Omega, 2023):
In brackets after ≈: the same amount, converted by molar mass.

Legend:
[1] = system: C. parapsilopsis (ATCC 22019); test: In vitro antifungal activity (CLSI) against C. parapsilosis; assay type: cell-based; details: for MIC: Lodderomyces parapsilosis, ATCC22019
Source text: (§1) Voriconazole and fluconazole (against candida strains) were used as standard reference drugs.

C. albicans (ATCC 24433) = test: In vitro antifungal activity (CLSI) against C. albicans; assay type: cell-based; details: for MIC: Candida albicans, ATCC24433
Source text: as §1

L929 cell lines = test: Cytotoxicity MTT assay on L929 fibroblasts; assay type: cell-based
Protocol: (§2) The cytotoxic effect of compounds 6a–6l was evaluated against L929 cell lines. For preliminary screening, the cytotoxic bioactivity of synthesized compounds was evaluated in vitro against L929 cell lines with the MTT assay. […] The effect of the compounds 6a–6l on the viability of L929 cell lines was analyzed by MTT assay as described in the previous work.[45]

C. glabrata (ATCC 9) = test: In vitro antifungal activity (CLSI) against C. glabrata; assay type: cell-based; details: for Antifungal activity (MIC), C. glabrata / MIC: C. glabrata ATCC 9; for Effectiveness against C. glabrata compared with fluconazole / Effectiveness against C. glabrata compared with voriconazole: from MIC values; for MIC: Nakaseomyces glabratus, ATCC9
Source text: as §1

C. krusei (ATCC 6258) = test: In vitro antifungal activity (CLSI) against C. krusei; assay type: cell-based; details: for MIC: Pichia kudriavzevii, ATCC6258
Source text: as §1

[2] = Cytotoxicity MTT assay on L929 fibroblasts; assay type: cell-based; details: mouse, L929 fibroblast cells; 100 μM, 48 h, L929 cell lines, MTT
Protocol: as §2

Row | Molecule | Antifungal activity (MIC), C. parapsilosis [1] [µg/mL] | Antifungal activity (MIC), C. albicans (C. albicans (ATCC 24433)) [µg/mL] | cell viability (%) (L929 cell lines; 100 µM) | Antifungal activity (MIC), C. glabrata (C. glabrata (ATCC 9)) [µg/mL] | Effectiveness against C. glabrata compared with fluconazole (C. glabrata (ATCC 9)) | Effectiveness against C. glabrata compared with voriconazole (C. glabrata (ATCC 9)) | Antifungal activity (MIC), C. krusei (C. krusei (ATCC 6258)) [µg/mL] | MIC [1] [µg/mL] | melting point [°C] | MIC (C. albicans (ATCC 24433)) [µg/mL] | viability at 48 h, 100 µM [2] [%] | MIC (C. glabrata (ATCC 9)) [µg/mL] | MIC (C. krusei (ATCC 6258)) [µg/mL] | IC50 (L929 cell lines; Mus musculus, L929 fibroblasts, MTT, maximum dose 100 μM, 48 h, read-out: IC50 against L929) [µM] | cell viability (%) (L929 cell lines; 100 μM, 48 h, L929 cell lines, MTT)
1 | N#Cc1ccc2[nH]c(-c3ccc(-c4nnc(SCC(=O)c5ccc(F)cc5)n4-c4ccccc4)cc3)nc2c1 [6d, 2-(4-(5-((2-(4-Fluorophenyl)-2-oxoethyl)thio)-4-phenyl-4H-1,2,4-triazol-3-yl)phenyl)-1H-benz[d]imidazole-5(6)-carbonitrile] | 125 | 62.5 | 34.2 ± 5.13 | 1.95 | two times more effective | same activity | 125 |  |  |  |  |  |  |  | 
2 | 2-(4-(5-((2-(4-Nitrophenyl)-2-oxoethyl)thio)-4-phenyl-4H-1,2,4-triazol-3-yl)phenyl)-1H-benz[d]imidazole-5(6)-carbonitrile [6a] | 62.5 | 31.25 | 34 ± 6.19 | 1.95 | two times more effective | same activity | 125 |  |  |  |  |  |  |  | 
3 | N#Cc1ccc2nc(-c3ccc(-c4nnc(SCC(=O)c5ccc(Cl)cc5Cl)n4-c4ccccc4)cc3)[nH]c2c1 [6j, 2-(4-(5-((2-(2,4-Dichlorophenyl)-2-oxoethyl)thio)-4-phenyl-4H-1,2,4-triazol-3-yl)phenyl)-1H-benz[d]imidazole-5(6)-carbonitrile] |  |  |  |  | four times more effective | two times more effective |  | 31.2 (≈ 53.7 µM) | 206.5 | 62.5 (≈ 107 µM) | 32.5 ± 1.34 | 0.97 (≈ 1.67 µM) | 125 (≈ 215 µM) |  | 
4 | N#Cc1ccc2nc(-c3ccc(-c4nnc(SCC(=O)c5ccc(Cl)cc5)n4-c4ccccc4)cc3)[nH]c2c1 [6i, 2-(4-(5-((2-(4-Chlorophenyl)-2-oxoethyl)thio)-4-phenyl-4H-1,2,4-triazol-3-yl)phenyl)-1H-benz[d]imidazole-5(6)-carbonitrile] |  |  |  |  | four times more effective | two times more effective |  | 31.2 (≈ 57.1 µM) | 197.9 | 62.5 (≈ 114 µM) | 53.6 ± 2.82 | 0.97 (≈ 1.77 µM) | 125 (≈ 229 µM) | > 100 | 
5 | N#Cc1ccc2[nH]c(-c3ccc(-c4nnc(SCC(=O)c5ccccc5)n4-c4ccccc4)cc3)nc2c1 [6l, 2-(4-(5-((2-Oxo-2-phenylethyl)thio)-4-phenyl-4H-1,2,4-triazol-3-yl)phenyl)-1H-benz[d]imidazole-5(6)-carbonitrile] | 31.25 | 31.25 | 37.6 ± 3.55 | 1.95 | two times more effective | same activity | 125 |  |  |  |  |  |  |  | 
6 | C[C@@H](c1ncncc1F)[C@](O)(Cn1cncn1)c1ccc(F)cc1F [voriconazole, reference compound] |  |  |  |  |  |  |  | 3.9 (≈ 11.2 µM) |  | 3.9 (≈ 11.2 µM) |  | 1.95 (≈ 5.58 µM) | 3.9 (≈ 11.2 µM) |  | 
7 | N#Cc1ccc2[nH]c(-c3ccc(-c4nnc(SCC(=O)c5ccc(Br)cc5)n4-c4ccccc4)cc3)nc2c1 [6f, 2-(4-(5-((2-(4-Bromophenyl)-2-oxoethyl)thio)-4-phenyl-4H-1,2,4-triazol-3-yl)phenyl)-1H-benz[d]imidazole-5(6)-carbonitrile] | 62.5 | 62.5 | 27.6 ± 1.02 | 1.95 | two times more effective | same activity | 125 |  |  |  |  |  |  |  | 
8 | N#Cc1ccc2[nH]c(-c3ccc(-c4nnc(SCC(=O)c5cccc([N+](=O)[O-])c5)n4-c4ccccc4)cc3)nc2c1 [6k, 2-(4-(5-((2-(3-Nitrophenyl)-2-oxoethyl)thio)-4-phenyl-4H-1,2,4-triazol-3-yl)phenyl)-1H-benz[d]imidazole-5(6)-carbonitrile] | 31.25 | 31.25 | 30.3 ± 0.41 | 1.95 | two times more effective | same activity | 125 |  |  |  |  |  |  |  | 
9 | COc1ccc(C(=O)CSc2nnc(-c3ccc(-c4nc5cc(C#N)ccc5[nH]4)cc3)n2-c2ccccc2)cc1 [6b, 2-(4-(5-((2-(4-Methoxyphenyl)-2-oxoethyl)thio)-4-phenyl-4H-1,2,4-triazol-3-yl)phenyl)-1H-benz[d]imidazole-5(6)-carbonitrile] |  |  |  |  | four times more effective | two times more effective |  | 31.2 (≈ 57.6 µM) | 177.6 | 31.2 (≈ 57.6 µM) | 32.1 ± 1.38 | 0.97 (≈ 1.79 µM) | 125 (≈ 230 µM) |  | 
10 | N#Cc1ccc2[nH]c(-c3ccc(-c4nnc(SCC(=O)c5ccc(Cl)c(Cl)c5)n4-c4ccccc4)cc3)nc2c1 [6g, 2-(4-(5-((2-(3,4-Dichlorophenyl)-2-oxoethyl)thio)-4-phenyl-4H-1,2,4-triazol-3-yl)phenyl)-1H-benz[d]imidazole-5(6)-carbonitrile] | 31.25 | 125 | 34.6 ± 3.51 | 1.95 | two times more effective | same activity | 250 |  |  |  |  |  |  |  | 
11 | N#Cc1ccc(C(=O)CSc2nnc(-c3ccc(-c4nc5cc(C#N)ccc5[nH]4)cc3)n2-c2ccccc2)cc1 [6c, 2-(4-(5-((2-(4-Cyanophenyl)-2-oxoethyl)thio)-4-phenyl-4H-1,2,4-triazol-3-yl)phenyl)-1H-benz[d]imidazole-5(6)-carbonitrile] | 31.25 | 31.25 | 30.9 ± 1.42 | 1.95 | two times more effective | same activity | 125 |  |  |  |  |  |  |  | 
12 | N#Cc1ccc2[nH]c(-c3ccc(-c4nnc(SCC(=O)c5ccc(F)cc5F)n4-c4ccccc4)cc3)nc2c1 [6h, 2-(4-(5-((2-(2,4-Difluorophenyl)-2-oxoethyl)thio)-4-phenyl-4H-1,2,4-triazol-3-yl)phenyl)-1H-benz[d]imidazole-5(6)-carbonitrile] | 62.5 | 62.5 | 28.1 ± 1.48 | 1.95 | two times more effective | same activity | 62.5 |  |  |  |  |  |  |  | 
13 | N#Cc1ccc2[nH]c(-c3ccc(-c4nnc(SCC(=O)c5ccc(-c6ccccc6)cc5)n4-c4ccccc4)cc3)nc2c1 [6e, 2-(4-(5-((2-([1,1′-Biphenyl]-4-yl)2-oxoethyl)thio)-4-phenyl-4H-1,2,4-triazol-3-yl)phenyl)-1H-benz[d]imidazole-5(6)-carbonitrile] | 62.5 | 62.5 |  | 1.95 | two times more effective | same activity | 125 |  |  |  |  |  |  |  | 40 ± 8.71
14 | OC(Cn1cncn1)(Cn1cncn1)c1ccc(F)cc1F [fluconazole, reference compound] |  |  |  |  |  |  |  | 3.9 (≈ 12.7 µM) |  | 7.81 (≈ 25.5 µM) |  | 3.9 (≈ 12.7 µM) | 7.81 (≈ 25.5 µM) |  | 
